Data taken from ChEMBL document CHEMBL1201862, “PubChem BioAssay data set” (2004).
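The compound was tested at five concentrations on cells cultured in 96-well plates, with a 48-hour exposure period. GI50 marks 50% less growth.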 Active and inactive are the calls of the source. Rule as the data show it: active = GI50 up to about 1.1 µM and inactive = higher.

Experiments:
Test in all cases: NCI tumour cell line growth inhibition, 48 h
OVCAR-8 = test system: OVCAR-8
HOP-92 = test system: HOP-92
OVCAR-3 = test system: OVCAR-3
K562 = test system: K562
NCI-H226 = test system: NCI-H226
UACC-62 = test system: UACC-62
CAKI-1 = test system: CAKI-1
SN12C = test system: SN12C
HCT-116 = test system: HCT-116
DU-145 = test system: DU-145
SNB-19 = test system: SNB-19
A498 = test system: A498
SK-OV-3 = test system: SK-OV-3
EKVX = test system: EKVX
A549 = test system: A549
Hs-578T = test system: Hs-578T
NCI-H522 = test system: NCI-H522
RPMI-8226 = test system: RPMI-8226
SW-620 = test system: SW-620

Row | Compound | GI50 (OVCAR-8) | GI50 (HOP-92) | GI50 (OVCAR-3) | GI50 (K562) | GI50 (NCI-H226) | GI50 (UACC-62) | GI50 (CAKI-1) | GI50 (SN12C) | GI50 (HCT-116) | GI50 (DU-145) | GI50 (SNB-19) | GI50 (A498) | GI50 (SK-OV-3) | GI50 (EKVX) | GI50 (A549) | GI50 (Hs-578T) | GI50 (NCI-H522) | GI50 (RPMI-8226) | GI50 (SW-620)
1 | COc1c(-c2nc3ccc(N4CCN(C)CC4)nc3[nH]2)cc(OC)c2c1nc(COC(C)=O)n2C | > 100 µM (inactive) | > 100 µM (inactive) | > 100 µM (inactive) | > 100 µM (inactive) | > 100 µM (inactive) | > 100 µM (inactive) | > 100 µM (inactive) | > 100 µM (inactive) | 86.3 µM (inactive) | 22.6 µM (inactive) | 90.2 µM (inactive) | > 100 µM (inactive) | > 100 µM (inactive) | > 100 µM (inactive) | > 100 µM (inactive) | > 100 µM (inactive) | > 100 µM (inactive) |  | 
2 | O=C1/C(=C\c2cccc(Oc3ccccc3)c2)S(=O)(=O)C(c2ccccc2)N1c1cccc(Cl)c1 (configuration not stated) | 25.2 µM (inactive) | 27.7 µM (inactive) | 36.2 µM (inactive) | 26.4 µM (inactive) |  | 57.7 µM (inactive) | 78.2 µM (inactive) | 54.8 µM (inactive) | 29.4 µM (inactive) | 65.5 µM (inactive) | 68.9 µM (inactive) | > 100 µM (inactive) | 66.4 µM (inactive) | 51.1 µM (inactive) | > 100 µM (inactive) | 65.5 µM (inactive) | 26.8 µM (inactive) | 25.9 µM (inactive) | 25.1 µM (inactive)
3 | Clc1cc2nc(C3CCCCO3)[nH]c2cc1Cl (configuration not stated) | 17.7 µM (inactive) | 35.7 µM (inactive) | 5.09 µM (inactive) | 6.47 µM (inactive) | 86.7 µM (inactive) | 24.5 µM (inactive) | 29.1 µM (inactive) | 38.9 µM (inactive) | 13.7 µM (inactive) | 48.6 µM (inactive) | 39.7 µM (inactive) |  | 15.9 µM (inactive) | 48.1 µM (inactive) | 15.1 µM (inactive) | 7.29 µM (inactive) | 2.59 µM (inactive) | 12.8 µM (inactive) | 19.6 µM (inactive)
4 | CC(C)C(=O)CC(Sc1ccc(N)cc1)c1ccccc1 (configuration not stated) | 25.6 µM (inactive) |  | 27.6 µM (inactive) | 25.4 µM (inactive) | 46.5 µM (inactive) | 19 µM (inactive) | 34.3 µM (inactive) | 28.1 µM (inactive) | 13.3 µM (inactive) | 25.4 µM (inactive) | 48.5 µM (inactive) | 36.2 µM (inactive) | 26.4 µM (inactive) |  | 28.1 µM (inactive) | 21.7 µM (inactive) | 15.8 µM (inactive) | 17.4 µM (inactive) | 16.9 µM (inactive)
5 | O=C(O)c1cccc(S(=O)(=O)NN2C(=O)CSC2c2ccccc2Cl)c1 (configuration not stated) | > 100 µM (inactive) | > 100 µM (inactive) | > 100 µM (inactive) | > 100 µM (inactive) | 58.3 µM (inactive) | > 100 µM (inactive) | > 100 µM (inactive) | > 100 µM (inactive) | > 100 µM (inactive) | > 100 µM (inactive) | > 100 µM (inactive) |  | > 100 µM (inactive) | > 100 µM (inactive) | > 100 µM (inactive) | > 100 µM (inactive) | > 100 µM (inactive) | 81.3 µM (inactive) | > 100 µM (inactive)
6 | COc1cc2oc(-c3ccc(O)cc3)cc(=O)c2c(OC)c1O | 49.7 µM (inactive) | 27.9 µM (inactive) | 80.9 µM (inactive) | 60.5 µM (inactive) | > 100 µM (inactive) | 99.5 µM (inactive) | > 100 µM (inactive) | 68.7 µM (inactive) | 54 µM (inactive) | 94.8 µM (inactive) | 45.4 µM (inactive) |  | 30.5 µM (inactive) | > 100 µM (inactive) | 89.9 µM (inactive) | 58.5 µM (inactive) | 29.8 µM (inactive) | 89.9 µM (inactive) | > 100 µM (inactive)
7 | CSc1nc(=O)c2nc(-c3cccs3)c(-c3cccs3)nc2n1C | 29.3 µM (inactive) | 28.8 µM (inactive) |  | > 100 µM (inactive) |  | 41.7 µM (inactive) | 39.6 µM (inactive) | 43.6 µM (inactive) | > 100 µM (inactive) | 34.3 µM (inactive) | 29.8 µM (inactive) | 32.3 µM (inactive) | 26.8 µM (inactive) | 27.6 µM (inactive) | 44.8 µM (inactive) | 35.6 µM (inactive) | 31 µM (inactive) | > 100 µM (inactive) | > 100 µM (inactive)
8 | CC12CCC(C(=O)n3c1nc1ccccc13)C(C)(C)O2 (configuration not stated) | > 100 µM (inactive) | > 100 µM (inactive) | > 100 µM (inactive) | > 100 µM (inactive) | > 100 µM (inactive) | > 100 µM (inactive) | > 100 µM (inactive) | > 100 µM (inactive) | > 100 µM (inactive) | > 100 µM (inactive) | > 100 µM (inactive) |  | > 100 µM (inactive) | > 100 µM (inactive) | > 100 µM (inactive) | 16.3 µM (inactive) | 47.6 µM (inactive) | > 100 µM (inactive) | > 100 µM (inactive)
9 | c1csc(-c2cc(-c3ccsc3)cs2)c1 |  | > 100 µM (inactive) | 27.2 µM (inactive) | > 100 µM (inactive) |  | > 100 µM (inactive) | > 100 µM (inactive) | > 100 µM (inactive) | > 100 µM (inactive) | > 100 µM (inactive) |  | > 100 µM (inactive) | 33.8 µM (inactive) | 52.7 µM (inactive) | 44.8 µM (inactive) | 21 µM (inactive) |  | > 100 µM (inactive) | > 100 µM (inactive)
10 | CC(=O)NC1C(OCC(=O)NC(C)C(=O)NC(CCC(=O)NCCCCCNc2ccc([N+](=O)[O-])c3[nH]c4ccccc4c(=O)c23)C(N)=O)C(O)C(CO)OC1(C)OCc1ccccc1 (configuration not stated) | > 50 µM (inactive) |  | > 50 µM (inactive) | 4.5 µM (inactive) | > 50 µM (inactive) | > 50 µM (inactive) | > 50 µM (inactive) | 19.6 µM (inactive) | 19.4 µM (inactive) | > 50 µM (inactive) | 33.3 µM (inactive) | > 50 µM (inactive) | 39.1 µM (inactive) | > 50 µM (inactive) | > 50 µM (inactive) | 19.5 µM (inactive) | > 50 µM (inactive) | 0.005 µM (active) | > 50 µM (inactive)
11 | CC1CNC(c2ccc(CN3CCC(C4CCN(Cc5ccc(C6=NC(C)CN6)cc5)CC4)CC3)cc2)=N1 (configuration not stated) | 29.6 µM (inactive) | 75.7 µM (inactive) | 17.5 µM (inactive) | 16.7 µM (inactive) |  | 19.9 µM (inactive) | 38.8 µM (inactive) | 20.1 µM (inactive) | 17.9 µM (inactive) | 16.2 µM (inactive) | 26.1 µM (inactive) | 29.2 µM (inactive) | 16.3 µM (inactive) | 21.7 µM (inactive) | 20.6 µM (inactive) | 18.6 µM (inactive) | 15 µM (inactive) | 19.5 µM (inactive) | 18.2 µM (inactive)
12 | CCCNC1=Nc2ccccc2[C@@H]2N(C)c3ccccc3C(C)C[C@]12C (some centres not stated) | 14.7 µM (inactive) |  | 19.2 µM (inactive) | 20 µM (inactive) | 34 µM (inactive) | 16.1 µM (inactive) | 26.3 µM (inactive) | 37.1 µM (inactive) | 14.8 µM (inactive) | 32.4 µM (inactive) | 18.6 µM (inactive) | 14.4 µM (inactive) |  | 32.4 µM (inactive) | 28.8 µM (inactive) | 19.1 µM (inactive) | 18.2 µM (inactive) | 18.7 µM (inactive) | 16.5 µM (inactive)
13 | COc1ccc2c(c1)[C@@]13CCCC[C@H]1[C@@H](C2)N(C)CC3=O | 19.3 µM (inactive) | 13.6 µM (inactive) | 17.4 µM (inactive) | 28 µM (inactive) | 21.3 µM (inactive) | 16.9 µM (inactive) | 28.3 µM (inactive) | 21.4 µM (inactive) | 16.2 µM (inactive) | 21.8 µM (inactive) | 76.9 µM (inactive) |  | 16 µM (inactive) | 18.5 µM (inactive) | 19.9 µM (inactive) | 19.2 µM (inactive) | 18.3 µM (inactive) | 25.6 µM (inactive) | 
14 | [N-]=[N+]=CC(=O)C1CCN(c2ccccc2)C1=O (configuration not stated) | > 10 µM (inactive) |  | > 10 µM (inactive) | > 10 µM (inactive) | > 10 µM (inactive) | > 10 µM (inactive) | > 10 µM (inactive) | > 10 µM (inactive) | > 10 µM (inactive) | > 10 µM (inactive) | > 10 µM (inactive) | > 10 µM (inactive) | > 10 µM (inactive) | > 10 µM (inactive) | > 10 µM (inactive) | > 10 µM (inactive) |  | > 10 µM (inactive) | > 10 µM (inactive)
15 | CN(C)CCCN1c2ccccc2CCc2cc([N+](=O)[O-])ccc21 | 24.6 µM (inactive) |  | 20 µM (inactive) | 27.2 µM (inactive) | 24 µM (inactive) | 14.5 µM (inactive) | 26.8 µM (inactive) | 22.9 µM (inactive) | 20.5 µM (inactive) | 24.4 µM (inactive) | 28.6 µM (inactive) | 25.5 µM (inactive) |  | 33.9 µM (inactive) | 24.6 µM (inactive) | 31.8 µM (inactive) | 24.5 µM (inactive) | 21.5 µM (inactive) | 
16 | Cn1c2ccccc2n2c(N=O)c(-c3ccccc3)nc12 | > 100 µM (inactive) | 84.3 µM (inactive) | 30.1 µM (inactive) | > 100 µM (inactive) |  | 56.5 µM (inactive) | 39.7 µM (inactive) | 69.2 µM (inactive) | 87.9 µM (inactive) | 23.7 µM (inactive) | 30.1 µM (inactive) | > 100 µM (inactive) | 67.3 µM (inactive) | 19.4 µM (inactive) | 21.6 µM (inactive) | 70.3 µM (inactive) | 57.5 µM (inactive) | 90.8 µM (inactive) | 72.8 µM (inactive)
